Read-outs that look alike come from different tables or passages of the source.
Test system: SARS-CoV-2-NLuc in A549-hACE2 cells
Test: microbe, parasite or virus in culture
Assay type: cell-based, SARS Coronavirus 2
[1] = Severe acute respiratory syndrome coronavirus, 48 h, read-out: MPro EC50
[2] = Severe acute respiratory syndrome coronavirus, 48 h, read-out: MPro EC50 (nM)

COc1cc(-c2cc3c(o2)c(=O)n(-c2cncc4ccccc24)c(=O)n3CCC#N)c(Cl)cc1F (single isomer, unassigned) [Example 59, 3-[6-(2-chloro-4-fluoro-5-methoxy-phenyl)-3-(4-isoquinolyl)-2,4-dioxo-furo[3,2-d]pyrimidin-1-yl]propanenitrile]
EC50 (read-out: MPro EC50): 4.65 nM

COc1cc(-c2cc3[nH]c(=O)n(-c4cncc5cccnc45)c(=O)c3o2)c(Cl)cc1F [Example 55, 6-(2-chloro-4-fluoro-5-methoxyphenyl)-3-(1,6-naphthyridin-8-yl)furo[3,2-d]pyrimidine-2,4(1H,3H)-dione]
EC50 [1]: 250 nM

Cn1ncc2cncc(-n3c(=O)c4oc(-c5ccccc5Cl)cc4n(CC#N)c3=O)c21 [Example 38]
EC50 [2]: 88 nM

COc1cc(-c2cc3c(o2)c(=O)n(-c2cncc4cccnc24)c(=O)n3CCC#N)c(Cl)cc1F (single isomer, unassigned) [Example 65, 3-(6-(2-chloro-4-fluoro-5-methoxyphenyl)-3-(1,6-naphthyridin-8-yl)-2,4-dioxo-3,4-dihydrofuro[3,2-d]pyrimidin-1(2H)-yl)propanenitrile]
EC50 (read-out: MPro EC50): 5.78 nM

COc1cc(-c2cc3c(o2)c(=O)n(-c2cncc4cccnc24)c(=O)n3CCC#N)c(Cl)cc1F (single isomer, unassigned) [Example 66, 3-(6-(2-chloro-4-fluoro-5-methoxyphenyl)-3-(1,6-naphthyridin-8-yl)-2,4-dioxo-3,4-dihydrofuro[3,2-d]pyrimidin-1(2H)-yl)propanenitrile]
EC50 (read-out: MPro EC50): 112 nM

COc1cc(-c2cc3c(o2)c(=O)n(-c2cncc4ccccc24)c(=O)n3CCC#N)c(Cl)cc1F (single isomer, unassigned) [Example 60, 3-[6-(2-chloro-4-fluoro-5-methoxy-phenyl)-3-(4-isoquinolyl)-2,4-dioxo-furo[3,2-d]pyrimidin-1-yl]propanenitrile]
EC50 (read-out: MPro EC50): 82.8 nM

COc1ccc2cncc(-n3c(=O)c4oc(-c5ccccc5Cl)cc4n(CC#N)c3=O)c2c1 [Example 41]
EC50 [2]: 16.6 nM

O=c1[nH]c2oc(-c3ccccc3)nc2c(=O)n1-c1cncc2ccccc12 [Example 13]
EC50 [2]: 4240 nM

N#CC1(Cn2c(=O)n(-c3cncc4ccccc34)c(=O)c3oc(-c4ccc(F)cc4Cl)cc32)CC1 [Example 54]
EC50 [2]: 18 nM

COc1ccc2cncc(-n3c(=O)c4oc(-c5ccccc5Cl)cc4n(CC4(C#N)CC4)c3=O)c2c1 [Example 51]
EC50 [2]: 12.1 nM

Cn1ncc2cncc(-n3c(=O)c4oc(-c5ccccc5Cl)cc4n(CCC#N)c3=O)c21 [Example 18]
EC50 [2]: 27.8 nM

Cn1ncc2cncc(-n3c(=O)[nH]c4cc(-c5ccccc5Cl)oc4c3=O)c21 [Example 6]
EC50 [2]: 174 nM

N#CCn1c(=O)n(-c2cncc3c2CCCC3)c(=O)c2oc(-c3ccccc3Cl)cc21 [Example 42]
EC50 [2]: 36.7 nM

Cn1c(=O)n(-c2cncc3ccccc23)c(=O)c2oc(-c3ccccc3Cl)cc21 [Example 31]
EC50 [2]: 565 nM

N#CC1(Cn2c(=O)n(-c3cncc4ccc(F)cc34)c(=O)c3oc(-c4ccccc4Cl)cc32)CC1 [Example 52]
EC50 [2]: 11.8 nM

Cn1ncc2cncc(-n3c(=O)c4oc(-c5ccccc5Cl)cc4n(CC4(C#N)CC4)c3=O)c21 [Example 48]
EC50 [2]: 8.36 nM

O=c1[nH]c2cc(-c3ccccc3Cl)oc2c(=O)n1-c1cncc2ccc(F)cc12 [Example 7]
EC50 [2]: 79.6 nM

COc1cc(-c2cc3c(o2)c(=O)n(-c2cncc4ccccc24)c(=O)n3C)c(Cl)cc1F [Example 28, 6-(2-chloro-4-fluoro-5-methoxy-phenyl)-3-(4-isoquinolyl)-1-methyl-furo[3,2-d]pyrimidine-2,4-dione]
EC50 [1]: 288 nM

Cn1ncc2cncc(-n3c(=O)[nH]c4cc(-c5ccc(F)cc5Cl)oc4c3=O)c21 [Example 9]
EC50 [1]: 1010 nM

Cn1c(=O)n(-c2cncc3c2CCCC3)c(=O)c2oc(-c3ccccc3Cl)cc21 [Example 34]
EC50 [2]: 960 nM

N#CCn1c(=O)n(-c2cncc3ccc(F)cc23)c(=O)c2oc(-c3ccccc3Cl)cc21 [Example 43]
EC50 [2]: 25.3 nM

COc1cc(-c2cc3c(o2)c(=O)n(-c2cncc4cnn(C)c24)c(=O)n3CC2(C#N)CC2)c(Cl)cc1F [Example 49]
EC50 [2]: 12.2 nM
